Read-outs that look alike come from different tables or passages of the source.
Key:
[1] = test system: Shionogi mouse mammary carcinoma cells; test: cells; format: cell-based; settings: for Ki: read-out: Shionogi cells Antiandrogenic activity Ki
Human Androgen Receptor = molecular target: T1, Human Androgen Receptor (Homo sapiens, UniProt P10275); format: binding
T1 construct: expressed in transfected cells; host or cells: HEK-293 cells stably transfected with the pCMVneo-hAR plasmid (G-418 selection); cytosol used
T1 sequence (P10275 1-920): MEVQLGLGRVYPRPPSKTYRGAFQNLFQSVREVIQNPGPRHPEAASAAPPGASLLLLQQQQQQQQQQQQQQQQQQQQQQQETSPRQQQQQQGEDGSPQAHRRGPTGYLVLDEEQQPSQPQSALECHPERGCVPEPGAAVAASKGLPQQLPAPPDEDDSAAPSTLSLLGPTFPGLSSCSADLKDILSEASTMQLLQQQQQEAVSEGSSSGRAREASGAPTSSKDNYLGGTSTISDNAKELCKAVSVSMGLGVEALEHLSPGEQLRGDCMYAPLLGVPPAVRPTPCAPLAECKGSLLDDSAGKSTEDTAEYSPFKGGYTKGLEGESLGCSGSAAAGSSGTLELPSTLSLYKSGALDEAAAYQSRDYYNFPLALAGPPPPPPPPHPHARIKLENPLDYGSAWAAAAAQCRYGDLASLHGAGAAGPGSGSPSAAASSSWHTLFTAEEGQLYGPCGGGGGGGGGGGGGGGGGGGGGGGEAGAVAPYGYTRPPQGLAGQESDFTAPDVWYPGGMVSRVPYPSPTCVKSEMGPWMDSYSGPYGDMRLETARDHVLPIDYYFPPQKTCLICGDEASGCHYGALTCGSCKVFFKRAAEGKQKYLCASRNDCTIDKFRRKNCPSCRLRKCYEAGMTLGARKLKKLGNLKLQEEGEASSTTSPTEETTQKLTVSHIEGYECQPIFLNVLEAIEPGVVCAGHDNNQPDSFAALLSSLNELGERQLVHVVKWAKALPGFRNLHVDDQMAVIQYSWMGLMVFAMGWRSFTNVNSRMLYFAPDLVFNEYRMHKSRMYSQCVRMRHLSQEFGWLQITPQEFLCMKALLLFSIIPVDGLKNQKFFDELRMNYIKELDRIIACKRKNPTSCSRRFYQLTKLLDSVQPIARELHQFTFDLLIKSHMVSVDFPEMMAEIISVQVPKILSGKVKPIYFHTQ

Immature Rat CX + DHT = test: animal or person; format: in vivo; settings: po; for change in vivo at 0.5 mg: Rattus norvegicus, 168 h
Intact Rat = test: In vivo activity in intact rat (organ and muscle weight)
androgen receptor = test: Antiandrogen / SARM / androgen profile observed on structural change; settings: structure-activity observation in estratriene derivatives
Description: Preferred positions on the steroid to this change in activities are 3, 4, 11β, 16 and 17α. […] Moreover, when we changed the 4-fluoro by a 4-chloro on EM-6583, we obtained a pure androgen (EM-5697). Similarly, when we increased the size of the chain at 17α-position on (1,4-phenylene as a spacer group), EM-8419 became a SARM. Again, when we changed the 4-fluoro by a 4-chloro on EM-8419, we obtained a pure androgen (EM-5313).
We also believed that a larger size increase could reverse the observed tendency (androgen to SARM or antiandrogen). Thus, it is not obvious to make good predictions of the biological activity of this compound family but some trends are observable.

Rat Androgen Receptor = molecular target: T2, Rat Androgen Receptor (Rattus norvegicus, UniProt P15207); test: Androgen receptor binding assay (HAP, [3H]R1881), rat prostate cytosol
T2 construct: ventral prostates collected from 24 h-gonadectomized rats were homogenized in buffer A; from tissue; host or cells: rat ventral prostate cytosol (24 h-gonadectomized rats)
T2 sequence (P15207 1-902): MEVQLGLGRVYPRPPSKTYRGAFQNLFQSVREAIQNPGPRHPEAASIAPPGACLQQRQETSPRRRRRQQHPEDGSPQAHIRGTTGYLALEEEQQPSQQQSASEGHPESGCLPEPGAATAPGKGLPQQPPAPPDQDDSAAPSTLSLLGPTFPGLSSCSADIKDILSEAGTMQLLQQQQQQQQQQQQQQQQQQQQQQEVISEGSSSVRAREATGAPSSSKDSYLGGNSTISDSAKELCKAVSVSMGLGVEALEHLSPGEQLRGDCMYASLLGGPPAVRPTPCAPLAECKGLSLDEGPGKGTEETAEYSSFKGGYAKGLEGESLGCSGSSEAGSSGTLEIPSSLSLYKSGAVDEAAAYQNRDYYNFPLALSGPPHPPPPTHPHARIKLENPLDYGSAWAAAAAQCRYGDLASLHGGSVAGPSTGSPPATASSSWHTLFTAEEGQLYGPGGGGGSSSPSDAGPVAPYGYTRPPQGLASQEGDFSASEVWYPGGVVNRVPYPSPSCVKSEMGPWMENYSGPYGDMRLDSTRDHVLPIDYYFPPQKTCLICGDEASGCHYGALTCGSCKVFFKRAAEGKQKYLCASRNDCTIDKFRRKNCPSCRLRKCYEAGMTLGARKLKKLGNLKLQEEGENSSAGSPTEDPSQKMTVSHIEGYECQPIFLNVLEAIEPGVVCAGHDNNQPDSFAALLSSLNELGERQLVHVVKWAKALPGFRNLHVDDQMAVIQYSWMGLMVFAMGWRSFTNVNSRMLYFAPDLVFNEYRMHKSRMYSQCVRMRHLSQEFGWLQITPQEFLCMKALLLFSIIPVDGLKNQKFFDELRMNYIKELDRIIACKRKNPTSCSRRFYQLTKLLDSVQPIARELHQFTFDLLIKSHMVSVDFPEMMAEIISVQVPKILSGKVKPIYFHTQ
Method: On the morning of the binding assay, ventral prostates collected from 24 h-gonadectomized rats were homogenized in buffer A (1 g of tissue in 5 mL) and the homogenate was centrifuged as described above.
Androgen binding is measured using the hydroxylapatite (HAP) assay. In brief, the radioactive steroid [^3H]R1881 solubilized in ethanol is diluted with buffer B (10 mM Tris-HCl, 1.5 mM EDTA disodium salt, 10 mM α-monothioglycerol, pH 7.4). Aliquots of the cell or prostate cytosol preparation (0.1 ml) are then incubated with 5 nM [^3H]R1881 (0.1 ml, ˜100 000 cpm) in the presence or absence of the indicated concentrations of unlabeled compounds (0.1 ml, prepared in buffer B containing 30% ethanol) for 16-18 h at 0-4° C. Triamcinolone acetonide (TAC; 100 nM) is added to mask progesterone receptors. Unbound steroids are separated by incubation for 40 min at 0-4° C. with 0.3 ml HAP prepared in buffer P (50 mM Tris-HCl, 10 mM KH2PO4, pH 7.4). After incubation with HAP and 10 min of centrifugation at 1000×g, the pellet is washed 3 times with 1 ml of buffer P. Thereafter, the radioactivity is extracted from the pellet by incubation at room temperature for 60 min with 1 ml of ethanol. After centrifugation, the supernatant is decanted into a scintillation vial and the pellet is extracted again with ethanol. After the addition of scintillation liquid, the radioactivity is measured in a liquid scintillation counter.

[2] = test system: CX+ 4-DIONE in Mature Rat; test: Systemic antiandrogenic activity in mature male rats; format: in vivo
in vivo = settings: male, Sprague-Dawley, rat, in vivo, po, 0.5 mg

SMILES | % of stim of basal at 10^−7M (% over basal) [1] | % of stim of basal at 10^−7 M (DHT = 100%) [1] | Human Androgen Receptor Binding RBA (%) R1881 = 100% (Human Androgen Receptor) | In Vivo Agonist Rat CX % change vs CX (DHT CONT = +100%) Bulbo (Immature Rat CX) | In Vivo Agonist Rat CX % change vs CX (DHT CONT = +100%) SV (Immature Rat CX) | In Vivo Agonist Rat CX % change vs CX (DHT CONT = +100%) VP (Immature Rat CX) | In Vivo Anti-A Rat CX + DHT % change vs DHT (CX CONT = −100%) SV (Immature Rat CX + DHT; rat, in vivo) | In Vivo Anti-A Rat CX + DHT % change vs DHT (CX CONT = −100%) VP (Immature Rat CX + DHT; rat, in vivo) | In Vivo Intact Rat % change vs Intact CONT (Intact CONT = +100%; CX CONT = 0%) SZ (Intact Rat; rat, in vivo) | Shionogi cells Antiandrogenic activity Ki OH-Flu/Ki compound [1] | Ki [1] | Rat Androgen Receptor Binding RBA (%) R1881 = 100% (Rat Androgen Receptor) | further results
C[C@H]1C[C@@]2(C)C(CC[C@@]2(O)Cc2cc[n+]([O-])cc2)C2CCc3c(ccc(C#N)c3F)C21 (stereo partly shown) [EM-6583] | +138 ± 49% | +52 ± 27% | 21% | +93 ± 15% | +17 ± 3% | +37 ± 7% | −75 ± 5% | −46 ± 6% | +71 ± 16% | – | – | – | inhibition at 0.0003 µM ([1]; Mus musculus, read-out: % of inh of DHT at 10^−7 M (Basal = 100%)): 46%; In Vivo Intact Rat % change vs Intact CONT (Intact CONT = +100%; CX CONT = 0%) Bulbo (Intact Rat; 0.1 mg/rat/os/ID, bulbocavernosus muscles weight): +145 ± 46%; In Vivo Intact Rat % change vs Intact CONT (Intact CONT = +100%; CX CONT = 0%) VP (Intact Rat; 0.1 mg/rat/os/ID, prostate weight): +90 ± 2%; activity profile (antiandrogen, SARM or androgen) (androgen receptor): became a SARM
CC12CCC3c4ccc(C#N)c(F)c4CCC3C1CCC2(O)Cc1cc[n+]([O-])cc1F (stereo not shown) [EM-8454] | – | – | ~1% | – | – | – | – | – | – | 2.7 | 2.2 nM | ~0.3% | In Vivo Agonist % Change vs CX (DHT = +100%) SV (Immature Rat CX; po): 0%; In Vivo Agonist % Change vs CX (DHT = +100%) VP (Immature Rat CX; po): 0%
Cc1c[n+]([O-])ccc1CC1(O)CCC2C3CCc4c(ccc(C#N)c4F)C3CCC21C (stereo not shown) [EM-8505] | – | – | ~0.3% | – | – | – | – | – | – | 4.4 | 4.2 nM | ~0.3% | –
CCC1CC2(C)C(CCC2(O)Cc2cc[n+]([O-])cc2F)C2CCc3c(ccc(C#N)c3F)C12 (stereo not shown) [EM-9017] | +36% | +31% | 139% | +102 ± 12% | +22 ± 2% | +24 ± 5% | −54 ± 2% | −42 ± 2% | +57 ± 6% | – | – | – | % of inh of DHT at 10^−7 M (Basal = 100%) ([1]; 0.0003 µM): +64%; In Vivo Anti-A Rat CX + DHT % change vs DHT (CX CONT = −100%) Bulbo (Immature Rat CX + DHT; rat, in vivo): +3 ± 11%; In Vivo Intact Rat % change vs Intact CONT (Intact CONT = +100%; CX CONT = 0%) Bulbo (Intact Rat; rat, in vivo): +154 ± 13%; In Vivo Intact Rat % change vs Intact CONT (Intact CONT = +100%; CX CONT = 0%) VP (Intact Rat; rat, in vivo): +47 ± 5%; inhibition of intact rat prostate (Intact Rat; rat, in vivo): 53±5%; inhibition of intact rat seminal vesicles (Intact Rat; rat, in vivo): 43±6%; stimulation of the bulbocavernosus muscles in intact rat (Intact Rat; rat, in vivo): 54±13%
CC(O)(CS(=O)(=O)c1ccc(F)cc1)C(=O)Nc1ccc(C#N)c(C(F)(F)F)c1 (stereo not shown) [bicalutamide] | – | – | – | – | – | – | – | – | – | – | – | – | In Vivo Agonist % Change vs CX (DHT = +100%) SV (Immature Rat CX; sc): (0; 0.2 mg, sc) %; In Vivo Agonist % Change vs CX (DHT = +100%) VP (Immature Rat CX; sc): (0; 0.2 mg, sc) %; change in vivo at 0.5 mg (Immature Rat CX + DHT; read-out: In Vivo Antagonist % Change vs DHT (CX = −100%) SV): -86%; change in vivo at 0.5 mg (Immature Rat CX + DHT; read-out: In Vivo Antagonist % Change vs DHT (CX = −100%) VP): -51%; % change vs 4-DIONE Cont (CX Cont = −100% inh) Seminal Vesicles ([2]; 1 mg/rat/per os/ID): −82 ± 9%; % change vs 4-DIONE Cont (CX Cont = −100% inh) Ventral Prostate ([2]; 1 mg/rat/per os/ID): −44 ± 7%; inhibition of prostate weight (4-dione stimulated) ([2]; 5 mg/rat): 64%; % change vs 4-DIONE Cont (CX Cont = −100% inh) Seminal Vesicles ([2]; 5 mg/rat/per os/ID): −90 ± 6%; % change vs 4-DIONE Cont (CX Cont = −100% inh) Ventral Prostate ([2]; 5 mg/rat/per os/ID): −64 ± 4%; AUC (in vivo): 8500 ± 386 ng·h/mL

Reference: patent publication US9284345B2 (priority 2007, dated 2016)
